Target: MYC:TRRAP interaction (Homo sapiens, UniProt P01106+Q9Y4A5)
Assay: MYC:TRRAP in-cell luminescence complementation assay (NanoBiT; SmB-MYC 1-190 and TRRAP 2033-2283-LgB in HeLa cells)
Type: cell-based
Details: Table 1; 46 primary hits at 10 uM; HeLa cells; triplicate measurements
Description: HeLa cells plated on Greiner 96-well TC-rated white plates with clear bottoms were used for the following measurements. Reverse transfections were carried out using LipoD293™ before cells were plated. A bluescript KS' plasmid (Addgene) was used as carrier DNA for transfections, and a pcDNA3.1 EGFP plasmid (ThermoFisher) was used as a fluorescence reporter. White light-reflecting film (USA Scientific) was used to cover the bottom of the plates for luminescence measurements. Black light-absorbing film was used to cover the top of the plates for fluorescence measurements. All measurements were taken on a SpectraMax i3 instrument (Molecular Devices).
Transfections were carried out with increasing DNA amounts (1-100 ng per well) of a CMV-driven LgB plasmid and SmB in excess or vice-versa. Background luminesce for the usable range and the amount of DNA needed for vast excess of LgB or SmB were noted. Next, complementation with vast excess either LgB or SmB was used to determine the expression of each of the indicated MYC and TRRAP constructs for a range of DNA amounts per well: 10-100 ng. An optimal ratio of DNA to equalize the expression of each MYC and TRRAP pair was calculated. Then, signal-to-noise ratios were calculated for the indicated MYC and TRRAP pairs, and the pair with the highest ratio was chosen. Finally, the chosen pair was used to determine the optimal DNA transfection mixture. It was determined to be 6.7 ng of a plasmid with a MYC construct, 60 ng of a plasmid with a TRRAP construct and 33.3 ng of the pcDNA 3.1 EGFP plasmid, for each well in a 96-well plate. Unless otherwise indicated, these were the ratios of DNA transfected for this type of assay.
HeLa cells were transfected as above using LipoD293™ with a mixture of SmB-MYC 1-190, TRRAP 2033-2283-LgB, and EGFP in CMV-driven plasmids at the same optimized ratio described above. Two days post-transfection, the media in each well was replaced with fresh media containing each compound from the NCI's sets at 25 μM. Cells were incubated for 2 h with each compound, and luminescence and fluorescence measurements were recorded for each well. Changes in luminescence were normalized to fluorescence. The following pre-plated compound sets were obtained from the NCI/DTP chemical repository and used for this screen:
These chemical sets were used to discover novel small-molecule inhibitors of the MYC:TRRAP complex. SmB-MYC 1-190, TRRAP 2033-2283-LgB, and EGFP were transfected into HeLa cells. Two days post-transfection, compounds were added to the media at 25 μM and cells were incubated for 2h. Luminescence and fluorescence were recorded for each well containing one of the compounds. Changes in luminescence measurements were normalized to fluorescence measurements.
Afterwards, only molecules that reduced luminescence levels to <50% RLU were considered. This set of 46 compounds were incubated at 10 μM with vector-expressing cells. Luminescence complementation was measured and repeated in triplicate measurements. In addition, HeLa cells expressing LgB and SmB alone were incubated with the same compounds to rule out potentially artificial results due to inhibition of luciferase or its complementation. Molecules that induces any significant reduction in luminescence (<0.6) during this control assay were not considered further. Of 2947 molecules, 17 were chosen for further testing and ordered from the NCI/DTP Open Chemical Repository. FIG. 16 describes these chosen compounds.
Using the luminescence assay above as a readout for the MYC:TRRAP interaction, we used a robotic liquid handler to evaluate 2987 additional compounds (25 μM). All primary hits were counter-screened for any activity against the luciferase enzyme itself and for any effects on the expression of the fusion proteins. We set a threshold of 50% inhibition to consider compounds further. Only 17 out of 2987 passed all these criteria (0.6%). […]

Sequence of MYC:TRRAP interaction (P01106 16-205): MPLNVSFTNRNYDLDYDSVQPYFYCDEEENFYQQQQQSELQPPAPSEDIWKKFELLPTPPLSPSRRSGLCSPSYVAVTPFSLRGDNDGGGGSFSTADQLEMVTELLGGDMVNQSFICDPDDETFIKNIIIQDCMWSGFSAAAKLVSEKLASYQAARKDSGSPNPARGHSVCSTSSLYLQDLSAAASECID
Sequence of MYC:TRRAP interaction (Q9Y4A5 2051-2301): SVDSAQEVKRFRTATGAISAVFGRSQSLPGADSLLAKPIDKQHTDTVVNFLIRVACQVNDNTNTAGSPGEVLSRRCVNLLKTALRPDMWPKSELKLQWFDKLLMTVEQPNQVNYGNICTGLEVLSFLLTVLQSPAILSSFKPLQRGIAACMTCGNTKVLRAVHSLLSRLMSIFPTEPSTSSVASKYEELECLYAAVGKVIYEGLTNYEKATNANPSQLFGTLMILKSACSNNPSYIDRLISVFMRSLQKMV

First: Cc1ccc(NC(=S)C#N)c(C)c1 [Compound 26, 1-cyano-N-(2,4-dimethylphenyl) methanethioamide]
Second: Cc1ccc2c(c1)C=C/C(=C\C=C1/C=CC(=O)c3ncccc31)N2C [Compound 37, 5-[2-(1,6-dimethylquinolin-1-ium-2-yl)ethenyl]quinolin-8-ol]
The “% Inhibition 10 uM” value of the first is higher: 90.89% for the first, 84.83% for the second.

Compared with `CC1=C(CCC(=O)O)c2cc3nc(cc4[nH]c(cc4C)cc4[nH]c(cc1n2)cc4C)C(C)=C3CCC(=O)O` [Compound 27, 3-[18-(2-carboxyethyl)-3,8,13,17-tetramethyl-22,23-dihydroporphyrin-2-yl]propanoic acid], `Cc1cc2c(C(C)C)c(O)c(O)c(C=O)c2c(O)c1-c1c(C)cc2c(C(C)C)c(O)c(O)c(C=O)c2c1O` [Compound 31, 7-(8-formyl-1,6,7-trihydroxy-3-methyl-5-propan-2-ylnaphthalen-2-yl)-2,3,8-trihydroxy-6-methyl-4-propan-2-ylnaphthalene-1-carbaldehyde] is lower in “% Inhibition 10 uM” value: 75.42% for the first, 68.27% for the second.

Compared with `O=C1c2ccccc2C(=O)c2sc(Nc3ccc(Cl)cc3)nc21` [Compound 28, 2-(4-chloroanilino)benzo [f][1,3] benzothiazole-4,9-dione], `CC1(C)CCC2=C(O1)c1ccccc1C(=O)C2=O` [Compound 40, 2,2-dimethyl-3,4-dihydrobenzo[h] chromene-5,6-dione] is higher in “% Inhibition 10 uM” value: 66.32% for the first, 76.06% for the second.

Compared with `COc1c(OC)c2c3c(nccc3c1OC)-c1cc(=O)c(OC)ccc1-2` [Compound 30], `COC(=O)[C@H]1[C@H]2C[C@@H]3c4[nH]c5ccccc5c4CCN3C[C@H]2C[C@@H](OC(=O)c2cc(OC)c(OC)c(OC)c2)[C@@H]1OC` [Compound 42, methyl (1R,15S,17R,18R, 19S,20S)-18-methoxy-17-(3,4,5-trimethoxybenzoyl) oxy-1,3,11,12,14,15,16, 17,18,19,20,21-dodecahydro-yohimban-19-carboxylate] is higher in “% Inhibition 10 uM” value: 68.68% for the first, 102.5% for the second.

First: FC(F)(F)c1cccc(-c2nc3nc(Cl)c(Cl)[nH]c-3n2)c1 [Compound 32, 5,6-dichloro-2-[3-(trifluoromethyl)phenyl]-1H-imidazo[4,5-b]pyrazine]
Second: COc1cc2c3c(cc4ccccc4c3c1O)N(C)CC2 [Compound 39]
The “% Inhibition 10 uM” value of the first is higher: 80.85% for the first, 73.42% for the second.

Going from `CC1=C(C)C(=O)O[C@H]([C@](C)(O)[C@]2(O)CC[C@@]3(O)[C@@H]4C[C@H]5O[C@]56CC=CC(=O)[C@]6(C)[C@H]4CC[C@]23C)C1` [Compound 33, (1S,2R,7S,9R,11R, 12R,15S,16S)-15-[(1S)-1-[(2S)-4,5-dimethyl-6-oxo-2,3-dihydropyran-2-yl]-1-hydroxyethyl]-12,15-dihydroxy-2,16-dimethyl-8-oxapentacyclo [9.7.0.02, 7.07,9.012,16] octadec-4-en-3-one] to `COc1c2c(cc3c1C1Oc4c(ccc(O)c4CC=C(C)C)C1CO3)OC(C)(C)C=C2` (centres unmarked) [Compound 45, 21-methoxy-17,17-dimethyl-5-(3-methylbut-2-enyl)-3,12,16-trioxapentacyclo [11.8.0.02,10.04, 9.015,20] henicosa-1(13),4(9),5,7, 14,18, 20-heptaen-6-ol], the “% Inhibition 10 uM” value rises from 29.74% to 85.82%.

First: COc1cccc2c1C(=O)c1c(O)c3c(c(O)c1C2=O)C[C@@](O)(C(C)=O)C[C@@H]3OC1CC(N(Cc2ccccc2)Cc2ccccc2)C(O)C(C)O1.Cl (stereo partly drawn) [Compound 34, (7S,9S)-9-acetyl-7-[4-(dibenzylamino)-5-hydroxy-6-methyloxan-2-yl]oxy-6,9,11-trihydroxy-4-methoxy-8,10-dihydro-7H-tetracene-5,12-dione; hydrochloride]
Second: N[C@@H](Cc1ccc2oc3cc(=O)c4ccccc4c-3nc2c1)C(=O)O.O=[N+]([O-])O [Compound 36, (2S)-2-amino-3-(5-oxobenzo[a]pheno-xazin-10-yl)propanoic acid; nitric acid]
The “% Inhibition 10 uM” value of the first is higher: 78.65% for the first, 73.39% for the second.

Going from `CN(C)c1ccc(/C=C/C(=O)c2cc(Cl)ccc2O)cc1` [Compound 35, (E)-1-(5-chloro-2-hydroxyphenyl)-3-[4-(dimethylamino)phenyl]prop-2-en-1-one] to `CN(C)c1ccc2c(c1)Sc1cc(N(C)C)ccc1N2C(=O)c1ccccc1` [Compound 44, [3,7-bis(dimethylamino)phenothiazin-10-yl]-phenylmethanone], the “% Inhibition 10 uM” value rises from 50.79% to 93.68%.

First: CC1Oc2cc3c(-c4c(O)cc(O)c5c(O)c6c(cc45)OC(C)C(C)C6=O)c(O)cc(O)c3c(O)c2C(=O)C1C (centres unmarked) [Compound 38]
Second: COc1cc(/N=N/c2cccc(S(N)(=O)=O)c2)c2ccccc2c1N [Compound 41, 3-[(4-amino-3-methoxy-naphthalen-1-yl)diazenyl] benzene-sulfonamide]
The “% Inhibition 10 uM” value of the first is lower: 76.03% for the first, 78.97% for the second.

Same assay, conditions: Table 2; compounds with >80% similarity to compound 10 (NSC657456); 10 uM

First: N=C(S)/N=N/c1c(O)[nH]c2ccccc12 [Compound 101, (2-hydroxy-1H-indol-3-yl)iminothiourea]
Second: N=C(N)/N=N/c1c(O)[nH]c2ccccc12 [Compound 104, 1-[(2-hydroxy-1H-indol-3-yl)imino] guanidine]
The “% Inhibition 10 uM” value of the first is lower: 104.5% for the first, 123.9% for the second.

Compared with `N=C(/N=N/c1c(O)[nH]c2ccccc12)N[N+](=O)[O-]` [Compound 102, 1-[(2-hydroxy-1H-indol-3-yl)imino]-3-nitroguanidine], `NC(=O)/N=N/c1c(O)[nH]c2ccccc12` [Compound 107, (2-hydroxy-1H-indol-3-yl)iminourea] is higher in “% Inhibition 10 uM” value: 100.4% for the first, 112.6% for the second.

First: N=C(/N=N/c1c(O)[nH]c2ccccc12)C(=N)/N=N/c1c(O)[nH]c2ccccc12 [Compound 103, 1-N,2-N-bis[(2-hydroxy-1H-indol-3-yl)imino]ethane-diimidamide]
Second: Oc1[nH]c2ccccc2c1/N=N/C(S)=N/c1ccccc1 [Compound 105, 1-[(2-hydroxy-1H-indol-3-yl)imino]-3-phenylthiourea]
The “% Inhibition 10 uM” value of the first is higher: 88.83% for the first, 65.25% for the second.

Going from `NC(=O)/N=N/c1c(O)n(O)c2ccccc12` [Compound 106, (1,2-dihydroxyindol-3-yl)iminourea] to `CCOC(=O)/N=N/c1c(O)[nH]c2ccccc12` [Compound 1014, ethyl N-[(2-hydroxy-1H-indol-3-yl)imino] carbamate], the “% Inhibition 10 uM” value falls from 127.3% to 107.3%.

First: CN(C)C(=S)/N=N/c1c(O)[nH]c2ccccc12 [Compound 108]
Second: O=C(/N=N/c1c(O)[nH]c2ccccc12)Nc1ccccc1 [Compound 1013, 1-[(2-hydroxy-1H-indol-3-yl)imino]-3-phenylurea]
The “% Inhibition 10 uM” value of the first is higher: 86.25% for the first, 83.25% for the second.

Going from `O=[N+]([O-])c1ccc(/N=N/c2c(O)[nH]c3ccccc23)cc1` [Compound 109, 3-[(4-nitrophenyl)diazenyl]-1H-indol-2-ol] to `Oc1[nH]c2ccccc2c1/N=N/c1ccccc1` [Compound 1012, 3-phenyldiazenyl-1H-indol-2-ol], the “% Inhibition 10 uM” value rises from 54.48% to 66.53%.

Going from `Cc1ccccc1/N=N/c1c(O)[nH]c2ccccc12` [Compound 1010, 3-[(2-methylphenyl)diazenyl]-1H-indol-2-ol] to `Oc1[nH]c2ccccc2c1/N=N/c1ccccc1Cl` [Compound 1011, 3-[(2-chlorophenyl)diazenyl]-1H-indol-2-ol], the “% Inhibition 10 uM” value falls from 94.76% to 64.75%.
